Source: paper PMC3458928, “Co-Factor Binding Confers Substrate Specificity to Xylose Reductase from Debaryomyces hansenii” (PLoS ONE, 2012)
Like-named read-outs stand apart in the source and are kept apart here.

What was measured:
[1] = molecular target: apo-DhXR (wild type xylose reductase) (Debaryomyces hansenii, UniProt Q6BLI9); experiment: Tryptophan fluorescence quenching titration, ligand binding to apo-DhXR wild type; details: wild type apo-DhXR, 25 °C
Procedure: (§1) Titrations of DhXR with ligands were examined by monitoring the intrinsic tryptophan fluorescence of DhXR using a Varian spectrofluorometer. Experiments were performed in indicated buffers as mentioned in the text. The excitation wavelength and emission wavelengths for monitoring DhXR-ligand interaction were 292 nm and 345 nm respectively. Slit widths were set to 5 nm for all experiments and PMT voltage was adjusted to get maximum signal for a given protein concentration. All experiments were done at 25.0±1°C. Initial readings of both the protein, Fprotein,0 and buffer, Fbuff,0 were taken, with F0 = Fprotein,0–Fbuff,0 defined as the initial fluorescence of the sample. The sample cuvette was then titrated with aliquots of ligands and mixed, and equilibrated for 3–4 minutes before measurement. Data points from five such measurements were averaged to obtain Fave,i. The relative fluorescence quenching upon sugar binding is defined as Qobs,i = (F0–Fave,i)/F0. All measurements were corrected for dilution, and inner filter effects.
(§2) Binding of ligands to DhXR was analyzed using two site binding model. [drawing 1] (1) where Q1 and Q2 are the fluorescence quenching corresponding to one and two ligands bound, respectively; L is concentration of free ligand in solution; K1,obs and K2,obs are association constants for the binding of the first and the second ligand molecule. Errors were calculated from fitting analysis of two independent experiments.
We examined the binding of D-xylose, xylitol, and NADPH to apo-DhXR. Quenching of tryptophan fluorescence upon ligand binding was used as the signal for monitoring the extent of binding. Apo-DhXR was excited at 292 nm and emission of tryptophan fluorescence was scanned between 300–375 nm (Fig. S2). […] Intrinsic site-specific binding constants are estimated from the macroscopic binding constants obtained from fitting by removing the statistical factors as in eq (2). [drawing 2] (2)

DhXR H109A mutant = DhXR H109A mutant (Debaryomyces hansenii, UniProt Q6BLI9, H109A); experiment: biochemical; assay type: binding
Procedure: as §1, §2
(§3) We tested the activity of all mutants and activities were normalized to the activity of wild type DhXR with respect to its D-xylose reducing activity.

DhXR K76A mutant = DhXR K76A mutant (Debaryomyces hansenii, UniProt Q6BLI9, K76A); experiment: biochemical; assay type: binding
Procedure: as §1, §2, §3

DhXR Y47A mutant = DhXR Y47A mutant (Debaryomyces hansenii, UniProt Q6BLI9, Y47A); experiment: biochemical; assay type: binding
Procedure: as §1, §2, §3

holo-DhXR [2] = molecular target: T1, holo-DhXR (Debaryomyces hansenii, UniProt Q6BLI9); experiment: Single point specific activity of holo-DhXR towards different sugars; assay type: biochemical; details: saturated sugar concentration (100 mM), 40 °C
Procedure: (§4) The xylose reductase activities of recombinant DhXR was determined spectrophotometrically by monitoring the change in A340 upon reduction of NADPH to NADP. The standard assay mixture contained 50 mM KPO4, pH 7.0, 100 mM sugar substrate, 0.3 mM NADPH, 0.18 µM of enzyme. Single point activity studies were performed at 40°C and all reactions were started by the addition of enzyme to a final volume of 0.8 ml (in standard assay condition). […] Errors for the activity assays were calculated from triplicate experiments. The kinetic parameters were determined using a range of substrate concentrations. Here, the reaction was performed at 25°C and assay mixture contained 50 mM KPO4, pH 7.0, 0.15 mM NADPH, 0.18 µM of enzyme and varying substrate concentrations. Steady state kinetics data were fit to Michaelis-Menten model, v = Vmax * [S]/([S]+Km), where Vmax, maximal velocity; Km, Michaelis-Menten constant; S, substrate concentration, and v, initial velocity.

holo-DhXR [3] = molecular target: T1, holo-DhXR; experiment: Steady state kinetics of carbonyl substrate reduction by holo-DhXR (A340, NADPH); assay type: biochemical
Procedure: as §4
To understand the specificity determining component in catalysis, we studied the steady state kinetics of holo-DhXR towards different carbonyl substrates. […] Therefore, all kinetic data analyzed fitting to Michaelis-Menten model by Non-Linear Least Squares method. (Fig. 4A). Steady state kinetic parameters are also determined for other sugars (table 3, Fig. 4B). […] We compared the Km/Kd ratio as an indicator of net affinity loss for a given substrate (Fig. S5).
In order to further verify that holoenzyme discriminates between substrate and non-substrate sugars, we challenged the catalysis of D-xylose by adding non-substrate sugars during kinetic experiments. […] We studied the kinetics of D-xylose reduction by holo-DhXR in the presence of fixed concentration (∼40 mM) of three sugars (Fig. 4C).

holo-DhXR [4] = molecular target: T1, holo-DhXR; experiment: Specific activity of DhXR with 100 mM D-xylose in presence of competing sugars; assay type: biochemical
Procedure: as §4
Assays were performed at 100 mM D-xylose and concentrations of competing sugars were varied (25 mM to 400 mM). […] Both DhXR and NADPH (20.0 µM) are pre-incubated and fluorescence signal was monitored until no further change. […] It should be noted that D-xylose is the substrate and is very likely to be reduced soon after binding.

[5] = molecular target: Xylose Reductase from Debaryomyces hansenii (Debaryomyces hansenii CBS767); experiment: SEC; purified DhXR, single peak at 52 mL; column calibrated with ferritin, catalase, aldolase, albumin and ovalbumin; estimated mass ~71 kDa
[6] = substrate: O=C[C@H](O)[C@@H](O)[C@H](O)CO; experiment: Steady state kinetics of carbonyl substrate reduction by holo-DhXR (A340, NADPH); assay type: biochemical, Debaryomyces hansenii; details: other: 25 °C, pH 7.0, 0.15 mM NADPH, 0.18 µM enzyme
[7] = 25 °C, pH 7.0, 0.15 mM NADPH, 0.18 µM enzyme

OC[C@H]1O[C@@](CO)(O[C@H]2O[C@H](CO)[C@@H](O)[C@H](O)[C@H]2O)[C@@H](O)[C@@H]1O [Sucrose, sucrose]
Kd ([1]; Kd1,int, first site): 7.3 ± 1 mM | Kd ([1]; Kd2,int, second site): 19 ± 5 mM | Kd (DhXR H109A mutant): 5 ± 0.2 mM | reduction in affinity versus wild type (DhXR H109A mutant; H109A): no reduction | Kd (DhXR K76A mutant): 10 ± 1 mM | Kd (DhXR Y47A mutant): 11 ± 2 mM | reduction in affinity versus wild type (DhXR Y47A mutant; Y47A, first site): ~2 fold | reduction of holoenzyme activity compared with D-xylose (holo-DhXR [2]): more than 95%

OC[C@@H](O)[C@H](O)[C@@H](O)CO [Xylitol, xylitol]
Kd ([1]; first site, read-out: Kd1,int): 8.2 ± 1 mM

D-arabinose
Kd ([1]; first site, read-out: Kd1,int): 8.1 ± 1 mM | Kd ([1]; second site, read-out: Kd2,int): 100 ± 10 mM | Vmax (holo-DhXR [3]; [7]): 127.2 ± 6.1 nmol/min | k cat (holo-DhXR [3]; [7]): 14.1 s⁻¹ | Km/Kd ratio (net affinity loss) (holo-DhXR [3]; Km of holoenzyme vs Kd of apoenzyme): ~220 fold | catalysis in steady state kinetic curves (in words) (holo-DhXR [3]; comparison of kinetic curves of different sugars): very weakly hydrolyzed | Km relative to that of D-xylose (holo-DhXR [3]; fold higher): 22 fold | Specific activity (holo-DhXR [4]; 25 mM sugar added in 100 mM D-xylose reaction): 69.4 ± 3.1 nmol/min | Specific activity (holo-DhXR [4]; 100 mM sugar added in 100 mM D-xylose reaction): 68.2 ± 3.7 nmol/min | Specific activity (holo-DhXR [4]; 400 mM sugar added in 100 mM D-xylose reaction): 66.5 ± 4.5 nmol/min | Kd (DhXR H109A mutant; H109A, first site, read-out: Kd1,int): 28 ± 3 mM | Kd (DhXR K76A mutant; K76A, first site, read-out: Kd1,int): 34 ± 4 mM | reduction in affinity versus wild type (DhXR Y47A mutant; Y47A, first site): 8–10 fold | Kd (DhXR Y47A mutant; Y47A, first site, read-out: Kd1,int): 66 ± 13 mM

Xylose Reductase from Debaryomyces hansenii (enzyme)
stoichiometry N [5]: 2

B1: holo-DhXR (Debaryomyces hansenii CBS767) (protein)
chain: MSIKLNSGYDMPLVGFGCWKVDNDTCAATIYNAIKVGYRLFDAAQDYGNCKEIGEGINKALDEGLVARDELFITSKLWNSYHDPKNVELALKKVLSDMKLDYLDLFLIHFPIAFKFVPIEERYPPGFYCGDGDKFHYENVPLADTWKAMEKLTKSGKVKSIGISNFSGALIYDLLRSAEIKPAVLQIEHHPYLQQPRLVEYVQSQNIAITGYSSFGPQSFLELKHSKALDTPTLFEHKTIKSIANKNKKTPAQVLLRWASQRNIAVIPKSNNPDRLLQNLEVNDFDLSKEDFEEISKLDQELRFNNPWDWDKIPIFA
Km [6]: 81 ± 6 mM | Vmax [6]: 0.185 µmol/min | kcat [6]: 20.6 s⁻¹ | kcat/Km [6]: 254 M⁻¹ s⁻¹
